Our source for the Relative activity values is patent publication US20110262977A1, “PROCESS FOR PRODUCTION OF OPTICALLY ACTIVE AMINE DERIVATIVE” (Daicel Chemical Industries, Ltd., priority 2008, published 2011).

Experiment [1] concerns imine reductase derived from Streptomyces sp. GF3546. The experiment is described as follows: Substrate specificity of imine reductase: NADPH/NADH-dependent imine-reducing activity (decrease in absorbance at 340 nm). It is filed as biochemical. As for the experimental part:
A reaction mixture containing the enzyme, 100 mM potassium phosphate buffer (pH 7.0), 0.2 mM NADPH, and 10 mM 2-methyl-1-pyrrolin was incubated at 30° C. The reaction mixture was assayed to determine the decrease in absorbance at 340 nm due to the decrease of NADPH. The amount of enzyme that catalyzes the decrease of 1 μmol of NADPH per minute was defined as 1 U.
(§1) The enzyme prepared as described in Example 4 was incubated with various imine compounds.

Experiment [2] has the same test system. The experiment is described as follows: Substrate specificity of imine reductase: NADP+-dependent amine-oxidizing activity (increase in absorbance at 340 nm). The experiment is classed as biochemical. The following applies: oxidation, substrate 10 mM, coenzyme NADP+. As for the experimental part:
A reaction mixture containing 100 mM glycine/potassium chloride/potassium hydroxide buffer 10.5, 2.5 mM NADP^+, 10 mM (S)-2-methylpyrrolidine, and the enzyme was incubated at 30° C. The reaction mixture was assayed to determine the increase in absorbance at 340 nm due to the increase of NADPH. The amount of enzyme that catalyzes the increase of 1 μmol of NADPH per minute was defined as 1 U.
as §1

Setting [3] is: substrate 10 mM, coenzyme NADPH, activity of reducing 2-methyl-1-pyrroline taken as 100.
The mark [4] stands for this setting: first % column, activity of reducing 2-methyl-1-pyrroline taken as 100.
Where [5] appears, read: second % column, (S)-2-methylpyrrolidine = 100.0.

`CC(=Nc1ccccc1)c1ccccc1` (mixture of isomers) [N-((E/Z)-N-(1-phenylethylidene)aniline] returned a Relative activity in experiment [1] (setting [3]) of 5.3%.

Take `C[C@@H]1CCCN1` [(R)-2-Methylpyrrolidine]: the Relative activity in experiment [2] (setting [4]) is on record as 7.7%; in experiment [2] (setting [5]) it was 17.4%. `COc1cc2c(cc1OC)C(C)=NCC2` [1-Methyl-6,7-dimethoxy-3,4-dihydroisoquinoline] returned a Relative activity in experiment [1] (substrate 0.05 mM, coenzyme NADPH, activity of reducing 2-methyl-1-pyrroline taken as 100) of 8.9%. Molecule `C(=NCc1ccccc1)c1ccccc1` [N-Benzylidenebenzylamine] showed a Relative activity in experiment [1] (setting [3]) of 20.9%. Take `C[C@H]1CCCN1` [(S)-2-Methylpyrrolidine]: the Relative activity in experiment [2] (setting [4]) is on record as 44.1%; in experiment [2] (setting [5]), 100.0%. On to `CC1=NCCC1` [2-Methyl-1-pyrroline], for which the Relative activity stood at 0.0% in experiment [1] (substrate 10 mM, coenzyme NADH, activity of reducing 2-methyl-1-pyrroline (NADPH) taken as 100) and 100.0% in experiment [1] (setting [3]).
